The text below walks through data of ChEMBL document CHEMBL6121021, “Design and Synthesis of Topoisomerases-Histone Deacetylase Dual Targeted Quinoline-Bridged Hydroxamates as Anticancer Agents” (J Med Chem, 2025).

For data set [1], the target named is T1, DNA topoisomerase 2-alpha (Homo sapiens, UniProt P11388). Nature of the data set: Inhibition of human Topo II-alpha-mediated decatenation of kDNA at 100 uM incubated for 30 mins.
Data set [2] deals with T1, DNA topoisomerase 2-alpha. As to the kind of experiment: Inhibition of human Topo II-alpha-mediated decatenation of kDNA incubated for 30 mins.
For data set [3], the target named is Histone deacetylase 2 (Homo sapiens, UniProt Q92769).
The target in data set [4] is Histone deacetylase 3/Nuclear receptor corepressor 2 (HDAC3/NCoR2) (Homo sapiens, UniProt O15379). As to the kind of experiment: Inhibition of His/GST-tagged recombinant human HDAC3/NcoR2 by fluorogenic assay. In kind it is protein-complex assay.
Data set [5] deals with Histone deacetylase 4 (Homo sapiens, UniProt P56524). As to the kind of experiment: Inhibition of His/GST-tagged recombinant human HDAC4 by fluorogenic assay.
Histone deacetylase 4, sequence (P56524 whole entry): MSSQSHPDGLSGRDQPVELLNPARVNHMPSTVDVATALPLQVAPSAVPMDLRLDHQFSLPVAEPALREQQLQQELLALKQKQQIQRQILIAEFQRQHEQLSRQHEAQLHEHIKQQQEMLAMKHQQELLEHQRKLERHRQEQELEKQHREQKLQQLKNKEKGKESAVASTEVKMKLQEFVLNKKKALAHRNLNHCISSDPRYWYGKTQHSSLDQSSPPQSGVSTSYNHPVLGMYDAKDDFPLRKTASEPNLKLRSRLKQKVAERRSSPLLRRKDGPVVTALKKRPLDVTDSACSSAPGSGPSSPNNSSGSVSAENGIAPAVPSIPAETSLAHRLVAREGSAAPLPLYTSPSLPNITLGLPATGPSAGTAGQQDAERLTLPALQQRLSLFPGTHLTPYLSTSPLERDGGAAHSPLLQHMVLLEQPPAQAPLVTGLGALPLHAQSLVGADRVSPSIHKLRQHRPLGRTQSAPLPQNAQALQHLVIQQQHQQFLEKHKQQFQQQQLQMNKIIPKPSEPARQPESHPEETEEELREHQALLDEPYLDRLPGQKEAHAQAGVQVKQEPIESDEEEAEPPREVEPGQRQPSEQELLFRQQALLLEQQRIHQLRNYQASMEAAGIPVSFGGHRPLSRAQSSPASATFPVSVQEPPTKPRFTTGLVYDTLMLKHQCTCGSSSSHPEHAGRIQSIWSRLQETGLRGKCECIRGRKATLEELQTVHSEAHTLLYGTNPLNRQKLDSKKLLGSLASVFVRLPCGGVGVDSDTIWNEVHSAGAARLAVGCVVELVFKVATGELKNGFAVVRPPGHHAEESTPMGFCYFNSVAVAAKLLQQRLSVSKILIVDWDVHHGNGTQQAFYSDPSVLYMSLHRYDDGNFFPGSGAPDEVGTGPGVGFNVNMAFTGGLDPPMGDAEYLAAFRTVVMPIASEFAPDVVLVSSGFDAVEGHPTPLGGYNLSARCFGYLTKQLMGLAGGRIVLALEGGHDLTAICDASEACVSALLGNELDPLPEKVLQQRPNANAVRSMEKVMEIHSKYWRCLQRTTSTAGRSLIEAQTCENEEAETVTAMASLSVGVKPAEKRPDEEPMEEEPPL
Data set [6] concerns the target Histone deacetylase 9 (Homo sapiens, UniProt Q9UKV0). Nature of the data set: Inhibition of His-tagged recombinant human HDAC9 by fluorogenic assay.
The target of data set [7] is Polyamine deacetylase HDAC10 (Homo sapiens, UniProt Q969S8). Nature of the data set: Inhibition of N-terminal FLAG-tagged recombinant human HDAC10 (2 to 631 residues) extracted from baculovirus infected Sf9 cells by fluorogenic assay.
Polyamine deacetylase HDAC10, sequence (Q969S8 whole entry, the tested form may be a part): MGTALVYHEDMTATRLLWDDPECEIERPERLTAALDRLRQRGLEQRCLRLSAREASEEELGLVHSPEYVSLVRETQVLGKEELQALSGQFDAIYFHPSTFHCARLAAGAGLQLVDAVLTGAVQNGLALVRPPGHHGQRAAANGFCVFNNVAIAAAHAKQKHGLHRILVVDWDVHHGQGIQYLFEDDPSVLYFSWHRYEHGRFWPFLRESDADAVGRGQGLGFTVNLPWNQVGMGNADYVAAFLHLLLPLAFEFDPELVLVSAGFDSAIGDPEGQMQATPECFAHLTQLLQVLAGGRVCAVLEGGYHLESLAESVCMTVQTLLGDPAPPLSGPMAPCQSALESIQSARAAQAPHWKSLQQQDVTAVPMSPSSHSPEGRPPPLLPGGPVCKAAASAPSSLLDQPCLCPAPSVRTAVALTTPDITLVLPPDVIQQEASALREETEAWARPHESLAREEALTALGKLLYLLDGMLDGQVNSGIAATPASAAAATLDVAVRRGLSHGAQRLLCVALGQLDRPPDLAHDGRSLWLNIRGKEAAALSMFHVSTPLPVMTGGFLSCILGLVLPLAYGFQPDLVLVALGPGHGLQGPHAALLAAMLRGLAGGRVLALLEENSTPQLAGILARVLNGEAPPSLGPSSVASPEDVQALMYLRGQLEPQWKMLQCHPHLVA
For data set [8], the system named is MCF7. Nature of the data set: cells. Conditions: Homo sapiens, MCF7, 48 h. The format is functional, cell-based.
For data set [9], the system named is HEK293. Nature of the data set: Antiproliferative activity against HEK293 cells at 10 uM incubated for 48 hrs by MTT assay. In kind it is toxicity, cell-based. To be noted: human, hek293, 48 h. For orientation: Tetrazolium dyes change colour on reduction, which living cells bring about.
The subject of data set [10] is A549. Nature of the data set: Anti-cancer activity against human A549 3D cell culture model at sub- IC50 incubated for 17 days with replacement of medium containing compound on every third day. In kind it is functional, cell-based. Conditions: time 17.0 day.
The test system of data set [11] is A549. As to the kind of experiment: Induction of ROS generation in human A549 cells incubated for 48 hrs by Cell Rox red staining based flow cytometry. The format is functional. On the technique in general: A flow cytometer gives signals particle by particle.
In data set [12] the test system is A549. As to the kind of experiment: Induction of apoptosis in human A549 cells at 500 nM by Annexin-V/PI staining based flow cytometry. In kind it is functional, cell-based.
Data set [13] deals with A549. Nature of the data set: Induction of cell cycle arrest in human A549 cells assessed as accumulation at G1 phase at 500 nM by PI staining based flow cytometry. The format is functional.
Data set [14] deals with A549. As to the kind of experiment: Induction of cell cycle arrest in human A549 cells assessed as accumulation at G2/M phase at 500 nM by PI staining based flow cytometry. In kind it is functional.
Data set [15] concerns MDA-MB-231. Nature of the data set: Anti-cancer activity against human MDA-MB-231 cells assessed as decrease in PCNA level incubated for 48 hrs by immunoblot analysis. The format is functional, cell-based. Conditions: dose 1-10 µM. In general terms: Immunoblotting shows a protein as a band on a membrane.
Data set [16] deals with MDA-MB-231. Nature of the data set: Anti-cancer activity against human MDA-MB-231 cells assessed as decrease in CDK-4 level at 1 to 10 uM incubated for 48 hrs by immunoblot analysis. The format is functional, cell-based. To be noted: dose 1-10 µM.
Data set [17] concerns MDA-MB-231. Nature of the data set: Anti-cancer activity against human MDA-MB-231 cells assessed as decrease in p53 level at 5 to 10 uM incubated for 48 hrs by immunoblot analysis. The format is functional, cell-based. To be noted: dose 5-10 µM.
Data set [18] relates to MDA-MB-231. Nature of the data set: Anti-cancer activity against human MDA-MB-231 cells assessed as decrease in p21 level at 1 to 10 uM incubated for 48 hrs by immunoblot analysis. In kind it is functional, cell-based. To be noted: dose 1-10 µM.
Data set [19] can be described thus: Metabolic stability in mouse hepatocytes assessed as half life at 2 uM measured upto 120 min by LC-MS/MS analysis. In kind it is ADME, cell-based, Hepatocyte.
Data set [20] is described as follows: Metabolic stability in human hepatocytes assessed as half life at 2 uM measured upto 120 min by LC-MS/MS analysis. The format is ADME, cell-based, Hepatocyte.
Data set [21] in a line: Metabolic stability in human hepatocytes assessed as hepatic clearance at 2 uM measured upto 120 min by LC-MS/MS analysis. In kind it is ADME, cell-based, Hepatocyte.
Data set [22] addresses Cytochrome P450 2C19 (Homo sapiens, UniProt P33261). Nature of the data set: Inhibition of CYP2C19 in human liver microsomes preincubated for 10 mins followed by NADPH addition measured after 5 mins by LC-MS/MS analysis. The format is ADME, Microsome.
Data set [23] in a line: Drug metabolism in human hepatocytes assessed as demethylation M6 metabolite formation at 10 uM by LC-MS/MS analysis. In kind it is ADME, cell-based, Hepatocyte.
Data set [24] in a line: Drug metabolism in human hepatocytes assessed as direct glucuronide conjugate M9 metabolite formation at 10 uM by LC-MS/MS analysis. The format is ADME, cell-based, Hepatocyte.
Data set [25] concerns A549. As to the kind of experiment: Antitumor activity against human A549 cells xenografted in athymic nude Crl:NU-Foxn1nu mouse assessed as tumor regression at 30 mg/kg, po administered twice a week for 1 month. The format is functional, organism-based. To be noted: time 1.0 months.
Data set [26] deals with A549. Nature of the data set: Antitumor activity against human A549 cells xenografted in athymic nude Crl:NU-Foxn1nu mouse assessed as decrease in tumor size at 15 to 30 mg/kg, po administered twice a week for 1 month. In kind it is functional, organism-based. To be noted: dose 15-30 mg/kg, time 1.0 months.
The subject of data set [27] is A549. As to the kind of experiment: In vivo cytotoxicity against human A549 cells xenografted in athymic nude Crl:NU-Foxn1nu mouse at 15 to 30 mg/kg, po administered twice a week for 1 month. To be noted: dose 15-30 mg/kg, time 1.0 months. The format is functional, organism-based.
Data set [28] can be described thus: Toxicity in athymic nude Crl:NU-Foxn1nu mouse xenografted with human A549 cells assessed as animal survival at 30 mg/kg, po administered twice a week for 1 month. In kind it is organism-based. Conditions: in vivo, 730 h, time 1 months.
The test system of data set [29] is A549. As to the kind of experiment: In vivo induction of apoptosis in human A549 cells xenografted in athymic nude Crl:NU-Foxn1nu mouse assessed as increase in Bax level at 30 mg/kg, po administered twice a week for 1 month by immunoblot analysis. The format is functional, organism-based. Conditions: time 1.0 months.
The test system of data set [30] is A549. Nature of the data set: In vivo induction of apoptosis in human A549 cells xenografted in athymic nude Crl:NU-Foxn1nu mouse assessed as increase in Bcl-2 level at 30 mg/kg, po administered twice a week for 1 month by immunoblot analysis. In kind it is functional, organism-based. To be noted: time 1.0 months.
Data set [31] has as its system A549. Nature of the data set: In vivo inhibition of epithelial-mesenchymal transition in human A549 cells xenografted in athymic nude Crl:NU-Foxn1nu mouse assessed as decrease in Twist mRNA level at 30 mg/kg, po administered twice a week for 1 month by qPCR analysis. The format is functional, organism-based. Conditions: time 1.0 months.
Data set [32] has as its system A549. As to the kind of experiment: cells. To be noted: Homo sapiens, A549, 48 h.
For data set [33], the system named is A549. Nature of the data set: Induction of apoptosis in human A549 cells by Annexin-V/PI staining based flow cytometry. The format is functional, cell-based.
Data set [34] relates to A549. As to the kind of experiment: Induction of cell cycle arrest in human A549 cells assessed as accumulation at G1 phase by PI staining based flow cytometry. In kind it is functional.
The subject of data set [35] is A549. As to the kind of experiment: Induction of cell cycle arrest in human A549 cells assessed as accumulation at G2/M phase by PI staining based flow cytometry. The format is functional.
Data set [36] concerns MDA-MB-231. As to the kind of experiment: Anti-cancer activity against human MDA-MB-231 cells assessed as decrease in PCNA level at 10 uM incubated for 48 hrs by immunoblot analysis. The format is functional, cell-based.
Data set [37] has as its system MDA-MB-231. As to the kind of experiment: Anti-cancer activity against human MDA-MB-231 cells assessed as decrease in p53 level at 1 to 5 uM incubated for 48 hrs by immunoblot analysis. The format is functional, cell-based. To be noted: dose 1-5 µM.
The test system of data set [38] is MDA-MB-231. Nature of the data set: Anti-cancer activity against human MDA-MB-231 cells assessed as decrease in p53 level at 10 uM incubated for 48 hrs by immunoblot analysis. In kind it is functional, cell-based.
Data set [39] has as its system MDA-MB-231. As to the kind of experiment: Anti-cancer activity against human MDA-MB-231 cells assessed as decrease in p21 level at higher concentration incubated for 48 hrs by immunoblot analysis. The format is functional, cell-based.

Calls of active or inactive are those of the source. The calls are words filed in the database; no cut-off is given here.

T1 sequence (P11388 whole entry): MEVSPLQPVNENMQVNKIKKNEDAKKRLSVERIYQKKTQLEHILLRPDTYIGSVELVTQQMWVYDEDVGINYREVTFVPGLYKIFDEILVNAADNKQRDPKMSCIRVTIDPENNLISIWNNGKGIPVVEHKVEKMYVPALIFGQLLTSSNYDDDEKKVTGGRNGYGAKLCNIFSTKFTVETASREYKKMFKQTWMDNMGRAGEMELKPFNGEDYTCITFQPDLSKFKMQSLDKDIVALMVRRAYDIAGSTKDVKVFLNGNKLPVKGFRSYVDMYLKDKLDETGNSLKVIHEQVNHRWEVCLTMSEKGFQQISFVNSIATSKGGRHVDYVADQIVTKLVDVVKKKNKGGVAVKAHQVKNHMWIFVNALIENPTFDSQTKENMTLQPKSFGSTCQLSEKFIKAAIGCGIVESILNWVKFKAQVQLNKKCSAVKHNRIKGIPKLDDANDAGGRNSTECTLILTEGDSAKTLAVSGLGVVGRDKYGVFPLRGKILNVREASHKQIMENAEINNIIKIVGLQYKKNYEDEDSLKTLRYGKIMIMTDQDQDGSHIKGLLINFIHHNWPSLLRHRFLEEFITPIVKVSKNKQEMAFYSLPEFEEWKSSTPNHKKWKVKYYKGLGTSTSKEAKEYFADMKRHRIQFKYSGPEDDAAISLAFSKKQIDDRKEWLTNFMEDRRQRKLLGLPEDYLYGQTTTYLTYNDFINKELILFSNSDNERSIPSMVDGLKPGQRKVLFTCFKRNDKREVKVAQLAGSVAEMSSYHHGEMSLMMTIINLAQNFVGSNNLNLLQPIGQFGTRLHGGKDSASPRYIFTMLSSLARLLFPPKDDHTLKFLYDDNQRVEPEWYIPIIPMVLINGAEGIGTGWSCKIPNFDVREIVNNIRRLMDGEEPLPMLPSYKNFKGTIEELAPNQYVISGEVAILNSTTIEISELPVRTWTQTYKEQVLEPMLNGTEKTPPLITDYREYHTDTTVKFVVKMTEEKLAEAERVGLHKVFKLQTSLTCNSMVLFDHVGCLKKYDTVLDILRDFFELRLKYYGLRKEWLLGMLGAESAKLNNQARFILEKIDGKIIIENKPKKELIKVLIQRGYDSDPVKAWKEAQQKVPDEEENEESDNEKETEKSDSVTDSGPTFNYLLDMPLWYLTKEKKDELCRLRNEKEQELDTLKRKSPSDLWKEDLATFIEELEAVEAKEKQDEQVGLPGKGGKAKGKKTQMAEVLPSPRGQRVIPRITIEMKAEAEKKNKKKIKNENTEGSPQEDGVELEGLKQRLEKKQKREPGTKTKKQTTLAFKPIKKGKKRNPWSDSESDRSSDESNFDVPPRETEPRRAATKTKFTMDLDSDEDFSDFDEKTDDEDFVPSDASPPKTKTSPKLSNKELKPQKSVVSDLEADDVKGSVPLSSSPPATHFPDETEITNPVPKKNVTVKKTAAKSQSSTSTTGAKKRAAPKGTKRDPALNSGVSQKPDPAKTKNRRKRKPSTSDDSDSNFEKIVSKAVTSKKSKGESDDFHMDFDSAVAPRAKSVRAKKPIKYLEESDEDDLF
Cytochrome P450 2C19, sequence (P33261 whole entry): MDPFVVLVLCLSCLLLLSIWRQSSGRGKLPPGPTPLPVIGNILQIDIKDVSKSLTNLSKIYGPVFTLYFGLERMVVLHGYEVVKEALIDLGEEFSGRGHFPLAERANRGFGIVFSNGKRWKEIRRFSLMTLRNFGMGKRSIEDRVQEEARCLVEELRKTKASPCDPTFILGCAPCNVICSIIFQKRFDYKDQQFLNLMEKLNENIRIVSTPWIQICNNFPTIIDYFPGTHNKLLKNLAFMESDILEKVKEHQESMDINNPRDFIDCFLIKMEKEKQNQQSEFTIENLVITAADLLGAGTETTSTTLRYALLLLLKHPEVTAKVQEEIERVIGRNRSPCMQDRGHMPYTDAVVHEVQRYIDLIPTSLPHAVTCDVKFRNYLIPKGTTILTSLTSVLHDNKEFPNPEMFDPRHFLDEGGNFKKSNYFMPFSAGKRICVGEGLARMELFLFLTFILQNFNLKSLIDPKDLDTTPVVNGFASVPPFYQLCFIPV
Histone deacetylase 9, sequence (Q9UKV0 whole entry, the tested form may be a part): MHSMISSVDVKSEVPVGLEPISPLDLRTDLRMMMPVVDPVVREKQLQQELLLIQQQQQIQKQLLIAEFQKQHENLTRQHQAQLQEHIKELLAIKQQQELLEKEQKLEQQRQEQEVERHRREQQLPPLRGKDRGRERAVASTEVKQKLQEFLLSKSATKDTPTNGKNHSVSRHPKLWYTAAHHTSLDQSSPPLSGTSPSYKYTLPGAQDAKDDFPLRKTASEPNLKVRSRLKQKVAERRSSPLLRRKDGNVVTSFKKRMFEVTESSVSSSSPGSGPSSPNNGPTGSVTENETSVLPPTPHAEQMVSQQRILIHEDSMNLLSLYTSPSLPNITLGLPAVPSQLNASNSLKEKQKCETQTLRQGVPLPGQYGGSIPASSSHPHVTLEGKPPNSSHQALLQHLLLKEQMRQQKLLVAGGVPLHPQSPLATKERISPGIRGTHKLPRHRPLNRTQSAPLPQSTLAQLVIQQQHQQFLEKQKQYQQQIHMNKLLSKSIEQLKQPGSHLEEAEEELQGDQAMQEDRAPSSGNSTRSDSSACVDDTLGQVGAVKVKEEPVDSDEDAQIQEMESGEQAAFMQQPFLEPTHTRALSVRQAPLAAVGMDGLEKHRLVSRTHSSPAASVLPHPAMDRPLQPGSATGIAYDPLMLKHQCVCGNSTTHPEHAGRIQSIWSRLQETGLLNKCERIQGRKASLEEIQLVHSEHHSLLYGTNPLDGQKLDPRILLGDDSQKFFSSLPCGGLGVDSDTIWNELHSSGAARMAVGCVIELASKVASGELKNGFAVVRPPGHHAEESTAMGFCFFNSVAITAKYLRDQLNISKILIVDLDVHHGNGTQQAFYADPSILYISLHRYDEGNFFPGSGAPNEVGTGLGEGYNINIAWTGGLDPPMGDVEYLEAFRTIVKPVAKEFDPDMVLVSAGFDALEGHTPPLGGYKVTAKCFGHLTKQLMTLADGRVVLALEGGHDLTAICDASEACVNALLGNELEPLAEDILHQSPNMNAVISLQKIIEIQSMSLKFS

As to `COc1ccc(-c2ccc3cc(OCCCCCC(=O)NO)ccc3n2)cc1`, the inhibition entry in data set [1] is reported as “Active; Observed As More Active Than Etoposide”. Besides, the IC50 in data set [2] is 67.8 µM; in [3], 77.4 nM; in data set [4] it was 88.3 nM; in data set [5], 99 nM; in data set [6], more than 100 nM; in data set [7] it was 87.1 nM. Also, the IC50 is 1980 nM in data set [8], 18 µM in [22] and 702 nM in data set [32]. In addition, the Activity result in [9] is “Non-toxic”; in data set [10], “Active; Exhibited Commendable Decrease In Mass Of 3D Sphere”; in data set [15], “Dose-dependent-effect”; in data set [25] it was “Active; Exerted Maximum Effect”; in [28] it was “Non-toxic”. Moreover, the result in data set [11], in [12], in [13], in data set [14], in data set [16] and in [18] was Active. In addition, the result in [26], in [27], in data set [29] and in [30] was Active. In addition, in [17], the result was inactive. Moreover, the half-life at 2 µM was found to be 74.3 min in [19] and 45.7 min in data set [20]. The CLhep predicted at 2 µM in data set [21] was 14 mL/min/kg. Besides, the Drug metabolism result in data set [23] and in data set [24] was “metabolite_detected” each time. Besides, the inhibition entry in data set [31] is “Active”.

Regarding `COc1ccc(-c2ccc3ccc(OCCCCCCC(=O)NO)cc3n2)cc1I`, in data set [1], the inhibition result is reported as “Active; Observed As More Active Than Etoposide”. Besides, the IC50 in data set [8] amounted to 3020 nM; in data set [32], 1970 nM. The Activity result in data set [10] is “Active; Exhibited Potent Effect”. The result in data set [11], in [33], in [34], in [35], in data set [36] and in [37] was Active. Moreover, the result in data set [39] was Active. In addition, in data set [38], the result was inactive.

The IC50 is the midpoint of a concentration-inhibition curve. As a reminder, the half-life is the time in which the quantity being followed falls by half.
